# Experiments:
# Cholinesterase = Cholinesterase (Homo sapiens, UniProt P06276); assay: In vitro inhibitory activity against Butyrylcholinesterase
# [1] = In vitro inhibitory activity against acetylcholinesterase
# Cholinesterase, sequence (P06276 whole entry): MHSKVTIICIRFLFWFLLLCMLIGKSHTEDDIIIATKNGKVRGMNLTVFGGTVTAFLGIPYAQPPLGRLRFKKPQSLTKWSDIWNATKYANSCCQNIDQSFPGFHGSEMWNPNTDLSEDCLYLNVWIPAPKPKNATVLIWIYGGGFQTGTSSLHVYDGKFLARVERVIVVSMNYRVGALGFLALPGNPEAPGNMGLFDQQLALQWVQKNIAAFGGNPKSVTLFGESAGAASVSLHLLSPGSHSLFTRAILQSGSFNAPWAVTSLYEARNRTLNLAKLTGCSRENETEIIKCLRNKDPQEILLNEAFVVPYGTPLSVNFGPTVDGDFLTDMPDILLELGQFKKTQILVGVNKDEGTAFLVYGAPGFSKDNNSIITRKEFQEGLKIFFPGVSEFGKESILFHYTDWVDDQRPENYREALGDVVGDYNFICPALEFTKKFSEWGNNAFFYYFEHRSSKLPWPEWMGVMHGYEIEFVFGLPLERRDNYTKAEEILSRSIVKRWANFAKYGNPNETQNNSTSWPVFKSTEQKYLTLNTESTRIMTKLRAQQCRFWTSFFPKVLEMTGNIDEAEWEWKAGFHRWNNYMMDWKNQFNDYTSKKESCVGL
SMILES,IC50 (Cholinesterase) [nM],IC50 [1] [nM]
COc1ccc2c(c1)C(=O)[C@]1(C#N)C(OC)C=CC[C@@H]1O2 (stereo not given in full),1410,620
COC1C=CC[C@@H]2Oc3ccc(C)cc3C(=O)[C@]12C#N (stereo not given in full),> 2000,790
COC1CC(=O)C[C@@H]2Oc3ccccc3C(=O)[C@]12C#N (stereo not given in full),> 2000,320
COC1=CC2CCC1C1Oc3ccccc3C(=O)[C@]21C#N (stereo not given in full),> 2000,> 2000
CO[C@@H]1C=CC[C@@H]2Oc3ccc(F)cc3C(=O)[C@@]21C#N,> 2000,280
COC1C=C(O[Si](C)(C)C(C)(C)C)C[C@@H]2Oc3ccccc3C(=O)[C@]12C#N (stereo not given in full),350,> 2000
CO[C@@H]1C=CC[C@@H]2Oc3ccc(Br)cc3C(=O)[C@@]21C#N,730,1420
CO[C@@H]1C=CC[C@@H]2Oc3ccc(Cl)cc3C(=O)[C@@]21C#N,270,240
CO[C@@H]1C=CC[C@@H]2Oc3ccccc3C(=O)[C@@]21C#N,> 2000,1120
N#C[C@]12C(=O)c3ccccc3OC1C1C=CC2CC1 (stereo not given in full),> 2000,580

# Source: ChEMBL document CHEMBL1131669, “Synthesis of dihydroxanthone derivatives and evaluation of their inhibitory activity against acetylcholinesterase: unique structural analogs of tacrine based on the BCD-ring of arisugacin” (Bioorg Med Chem Lett, 1999)
